From the NIST ThermoML archive (doi:10.1016/j.fluid.2007.08.008)
Numbers after ± are expanded uncertainties.

What was measured:
[1] = refractive index (Na D-line) (dimensionless); details: 298.15 K; 101.33 kPa; Liquid; Standard Abbe refractometry
[2] = 298.15 K; 101.33 kPa; Liquid; Vibrating tube method

refractive index [1] | mass density [2] [kg/m3] | Compound
1.4306 ± 0.004 |  | OCCO [1,2-ethanediol]
1.3784 ± 0.0045 | 741.81 ± 13 | CCCOCCC [dipropyl ether]
1.3836 ± 0.004 | 799.62 ± 0.14 | CCCO [propan-1-ol]
1.3325 ± 0.004 |  | O [water]
